Measurements as given in BigSolDB 2.1.

Cn1cnc([N+](=O)[O-])c1Cl
Conditions	solubility (mole fraction)
in 1,4-dioxane, 283.15 K	0.00714
in 1,4-dioxane, 285.65 K	0.00797
in 1,4-dioxane, 288.15 K	0.00882
in 1,4-dioxane, 290.65 K	0.00986
in 1,4-dioxane, 293.15 K	0.0109
in 1,4-dioxane, 295.65 K	0.0119
in 1,4-dioxane, 298.15 K	0.0129
in 1,4-dioxane, 300.65 K	0.014
in 1,4-dioxane, 303.15 K	0.0151
in 1,4-dioxane, 305.65 K	0.0161
in 1,4-dioxane, 308.15 K	0.0173
in 1,4-dioxane, 310.65 K	0.0186
in 1,4-dioxane, 313.15 K	0.0198
in 1,4-dioxane, 315.65 K	0.021
in 1,4-dioxane, 318.15 K	0.0225
in 2-butanone, 283.15 K	0.0145
in 2-butanone, 285.65 K	0.016
in 2-butanone, 288.15 K	0.0176
in 2-butanone, 290.65 K	0.0194
in 2-butanone, 293.15 K	0.0214
in 2-butanone, 295.65 K	0.0235
in 2-butanone, 298.15 K	0.0259
in 2-butanone, 300.65 K	0.0282
in 2-butanone, 303.15 K	0.0308
in 2-butanone, 305.65 K	0.0335
in 2-butanone, 308.15 K	0.0368
in 2-butanone, 310.65 K	0.04
in 2-butanone, 313.15 K	0.0434
in 2-butanone, 315.65 K	0.0474
in 2-butanone, 318.15 K	0.0512
in NMP, 283.15 K	0.157
in NMP, 285.65 K	0.162
in NMP, 288.15 K	0.168
in NMP, 290.65 K	0.174
in NMP, 293.15 K	0.181
in NMP, 295.65 K	0.188
in NMP, 298.15 K	0.195
in NMP, 300.65 K	0.202
in NMP, 303.15 K	0.209
in NMP, 305.65 K	0.217
in NMP, 308.15 K	0.224
in NMP, 310.65 K	0.233
in NMP, 313.15 K	0.242
in NMP, 315.65 K	0.252
in NMP, 318.15 K	0.261
in acetone, 283.15 K	0.0181
in acetone, 285.65 K	0.0202
in acetone, 288.15 K	0.0222
in acetone, 290.65 K	0.0248
in acetone, 293.15 K	0.027
in acetone, 295.65 K	0.0299
in acetone, 298.15 K	0.0326
in acetone, 300.65 K	0.0358
in acetone, 303.15 K	0.0391
in acetone, 305.65 K	0.0426
in acetone, 308.15 K	0.0465
in acetone, 310.65 K	0.0508
in acetone, 313.15 K	0.0555
in acetone, 315.65 K	0.06
in acetone, 318.15 K	0.0656
in chloroform, 283.15 K	0.0132
in chloroform, 285.65 K	0.0142
in chloroform, 288.15 K	0.0156
in chloroform, 290.65 K	0.017
in chloroform, 293.15 K	0.0185
in chloroform, 295.65 K	0.0201
in chloroform, 298.15 K	0.0219
in chloroform, 300.65 K	0.0236
in chloroform, 303.15 K	0.0255
in chloroform, 305.65 K	0.0276
in chloroform, 308.15 K	0.0298
in chloroform, 310.65 K	0.0322
in chloroform, 313.15 K	0.0345
in chloroform, 315.65 K	0.0372
in chloroform, 318.15 K	0.0399
in ethanol, 283.15 K	0.00218
in ethanol, 285.65 K	0.00235
in ethanol, 288.15 K	0.00259
in ethanol, 290.65 K	0.00283
in ethanol, 293.15 K	0.00313
in ethanol, 295.65 K	0.00347
in ethanol, 298.15 K	0.00381
in ethanol, 300.65 K	0.00417
in ethanol, 303.15 K	0.00456
in ethanol, 305.65 K	0.00497
in ethanol, 308.15 K	0.00539
in ethanol, 310.65 K	0.00587
in ethanol, 313.15 K	0.00643
in ethanol, 315.65 K	0.00705
in ethanol, 318.15 K	0.00784
in ethyl acetate, 283.15 K	0.00846
in ethyl acetate, 285.65 K	0.00911
in ethyl acetate, 288.15 K	0.00983
in ethyl acetate, 290.65 K	0.0108
in ethyl acetate, 293.15 K	0.0118
in ethyl acetate, 295.65 K	0.0128
in ethyl acetate, 298.15 K	0.0139
in ethyl acetate, 300.65 K	0.015
in ethyl acetate, 303.15 K	0.0162
in ethyl acetate, 305.65 K	0.0177
in ethyl acetate, 308.15 K	0.0191
in ethyl acetate, 310.65 K	0.0204
in ethyl acetate, 313.15 K	0.0218
in ethyl acetate, 315.65 K	0.0235
in ethyl acetate, 318.15 K	0.0253
in isopropanol, 283.15 K	0.00108
in isopropanol, 285.65 K	0.00125
in isopropanol, 288.15 K	0.00142
in isopropanol, 290.65 K	0.00158
in isopropanol, 293.15 K	0.00176
in isopropanol, 295.65 K	0.00195
in isopropanol, 298.15 K	0.00219
in isopropanol, 300.65 K	0.00247
in isopropanol, 303.15 K	0.00278
in isopropanol, 305.65 K	0.00313
in isopropanol, 308.15 K	0.00352
in isopropanol, 310.65 K	0.00408
in isopropanol, 313.15 K	0.00468
in isopropanol, 315.65 K	0.00533
in isopropanol, 318.15 K	0.00593
in methanol, 283.15 K	0.0028
in methanol, 285.65 K	0.00316
in methanol, 288.15 K	0.00349
in methanol, 290.65 K	0.00385
in methanol, 293.15 K	0.0042
in methanol, 295.65 K	0.0046
in methanol, 298.15 K	0.00506
in methanol, 300.65 K	0.00554
in methanol, 303.15 K	0.00603
in methanol, 305.65 K	0.00651
in methanol, 308.15 K	0.00699
in methanol, 310.65 K	0.00756
in methanol, 313.15 K	0.00811
in methanol, 315.65 K	0.0087
in methanol, 318.15 K	0.00936
in n-propanol, 283.15 K	0.00152
in n-propanol, 285.65 K	0.00168
in n-propanol, 288.15 K	0.00187
in n-propanol, 290.65 K	0.00208
in n-propanol, 293.15 K	0.00232
in n-propanol, 295.65 K	0.00258
in n-propanol, 298.15 K	0.00282
in n-propanol, 300.65 K	0.00308
in n-propanol, 303.15 K	0.00342
in n-propanol, 305.65 K	0.0038
in n-propanol, 308.15 K	0.00418
in n-propanol, 310.65 K	0.00468
in n-propanol, 313.15 K	0.00522
in n-propanol, 315.65 K	0.00592
in n-propanol, 318.15 K	0.0066
in toluene, 283.15 K	0.00194
in toluene, 285.65 K	0.00208
in toluene, 288.15 K	0.00228
in toluene, 290.65 K	0.00248
in toluene, 293.15 K	0.00272
in toluene, 295.65 K	0.00298
in toluene, 298.15 K	0.00325
in toluene, 300.65 K	0.00358
in toluene, 303.15 K	0.0039
in toluene, 305.65 K	0.00428
in toluene, 308.15 K	0.00468
in toluene, 310.65 K	0.00518
in toluene, 313.15 K	0.00568
in toluene, 315.65 K	0.00622
in toluene, 318.15 K	0.00683
